According to ChEMBL document CHEMBL5375986, “Discovery of Lead 2-Thiazolylhydrazones with Broad-Spectrum and Potent Antifungal Activity” (J Med Chem, 2023):
In brackets after ≈: the same amount, converted by molar mass.

Key:
Cryptococcus neoformans [1] = test: Antifungal activity against Cryptococcus neoformans assessed as inhibition of fungal growth; format: functional
[2] = Antifungal activity against Cryptococcus gattii VGI assessed as inhibition of fungal growth; format: functional
[Candida] auris = Antifungal activity against Candida auris COLO 01 assessed as inhibition of fungal growth incubated for 24 to 48 hrs by CLSI protocol based broth microdilution method; format: functional; settings: Candidozyma auris, time 24-48 hrs
Nakaseomyces glabratus = test: Antifungal activity against Candida glabrata ATCC 2001 assessed as inhibition of fungal growth incubated for 24 to 48 hrs by CLSI protocol based broth microdilution method; format: functional; settings: time 24-48 hrs
Candida tropicalis = test: Antifungal activity against Candida tropicalis ATCC 750 assessed as inhibition of fungal growth incubated for 24 to 48 hrs by CLSI protocol based broth microdilution method; format: functional; settings: time 24-48 hrs
Cryptococcus neoformans [3] = test: Antifungal activity against Cryptococcus neoformans ATCC 24067 assessed as inhibition of fungal growth incubated for 24 to 48 hrs by CLSI based broth microdilution method; format: functional; settings: time 24-48 hrs
Pichia kudriavzevii = test: Antifungal activity against Candida krusei ATCC 20298 assessed as inhibition of fungal growth incubated for 24 to 48 hrs by CLSI protocol based broth microdilution method; format: functional; settings: time 24-48 hrs
Candida parapsilosis = test: Antifungal activity against Candida parapsilosis ATCC 22019 assessed as inhibition of fungal growth incubated for 24 to 48 hrs by CLSI protocol based broth microdilution method; format: functional; settings: Lodderomyces parapsilosis, time 24-48 hrs
[4] = Antifungal activity against Cryptococcus gattii ATCC 24065 assessed as inhibition of fungal growth incubated for 24 to 48 hrs by CLSI protocol based broth microdilution method; format: functional, Cryptococcus gattii VGI; settings: time 24-48 hrs
Candida albicans = test: Antifungal activity against Candida albicans SC5314 assessed as inhibition of fungal growth incubated for 24 to 48 hrs by CLSI protocol based broth microdilution method; format: functional; settings: time 24-48 hrs

MIC (Cryptococcus neoformans [1]) [µM]	MIC [2] [µM]	MIC ([Candida] auris) [µM]	MIC (Nakaseomyces glabratus) [µM]	MIC (Candida tropicalis) [µM]	MIC (Cryptococcus neoformans [3]) [µM]	MIC (Pichia kudriavzevii) [µM]	MIC (Candida parapsilosis) [µM]	MIC [4] [µM]	MIC (Candida albicans) [µM]	Structure (SMILES)
0.9 (≈ 0.257 µg/mL)	0.9 (≈ 0.257 µg/mL)	–	–	–	–	–	–	–	–	C(=N\Nc1nc(-c2ccccc2)cs1)/C1CCCCC1
0.79 (≈ 0.249 µg/mL)	1.58 (≈ 0.498 µg/mL)	–	–	–	–	–	–	–	–	COc1ccc(-c2csc(N/N=C/C3CCCCC3)n2)cc1
1.94 (≈ 0.499 µg/mL)	1.94 (≈ 0.499 µg/mL)	–	–	–	–	–	–	–	–	c1ccc(-c2csc(NN=C3CCCC3)n2)cc1
–	–	> 125	> 125	> 125	> 125	> 125	> 125	> 125	> 125	CCOC(=O)/C(C)=N/Nc1nc(-c2ccccc2)cs1
–	–	> 125	> 125	> 125	> 125	> 125	> 125	> 125	> 125	CCOC(=O)c1sc(NN=C2CCOCC2)nc1C
–	–	14.2 (≈ 3.91 µg/mL)	–	114 (≈ 31.3 µg/mL)	–	28.4 (≈ 7.82 µg/mL)	–	–	14.2 (≈ 3.91 µg/mL)	C/C(=N\Nc1nc(-c2ccc(C)cc2)cs1)C(=O)O
–	–	57.6 (≈ 15.6 µg/mL)	–	> 125	> 125	28.8 (≈ 7.81 µg/mL)	–	> 125	57.6 (≈ 15.6 µg/mL)	CCOC(=O)Cc1csc(NN=C(C)C(=O)O)n1
–	–	> 125	> 125	> 125	> 125	> 125	> 125	> 125	> 125	CCOC(=O)/C(C)=N/Nc1nc(-c2ccc(OC)cc2)cs1
–	–	104 (≈ 31.3 µg/mL)	52.2 (≈ 15.6 µg/mL)	104 (≈ 31.3 µg/mL)	> 125	13 (≈ 3.89 µg/mL)	104 (≈ 31.3 µg/mL)	> 125	104 (≈ 31.3 µg/mL)	CCOC(=O)Cc1csc(NN=C(C)C(=O)OCC)n1
–	–	0.7 (≈ 0.227 µg/mL)	96.5 (≈ 31.2 µg/mL)	6 (≈ 1.94 µg/mL)	3 (≈ 0.971 µg/mL)	1.5 (≈ 0.486 µg/mL)	6 (≈ 1.94 µg/mL)	1.5 (≈ 0.486 µg/mL)	1.5 (≈ 0.486 µg/mL)	C/C(CCC(=O)O)=N\Nc1nc(-c2ccc(Cl)cc2)cs1
–	–	29.9 (≈ 7.81 µg/mL)	–	59.8 (≈ 15.6 µg/mL)	–	29.9 (≈ 7.81 µg/mL)	–	–	29.9 (≈ 7.81 µg/mL)	C/C(=N\Nc1nc(-c2ccccc2)cs1)C(=O)O
–	–	0.3 (≈ 0.11 µg/mL)	42.4 (≈ 15.6 µg/mL)	2.6 (≈ 0.957 µg/mL)	2.6 (≈ 0.957 µg/mL)	1.3 (≈ 0.479 µg/mL)	1.3 (≈ 0.479 µg/mL)	1.3 (≈ 0.479 µg/mL)	0.3 (≈ 0.11 µg/mL)	C/C(CCC(=O)O)=N\Nc1nc(-c2ccc(Br)cc2)cs1
–	–	1.5 (≈ 0.479 µg/mL)	48.9 (≈ 15.6 µg/mL)	6.1 (≈ 1.95 µg/mL)	0.8 (≈ 0.256 µg/mL)	1.5 (≈ 0.479 µg/mL)	3 (≈ 0.958 µg/mL)	0.2 (≈ 0.0639 µg/mL)	3 (≈ 0.958 µg/mL)	COc1ccc(-c2csc(N/N=C(\C)CCC(=O)O)n2)cc1
–	–	23 (≈ 7.82 µg/mL)	–	91.9 (≈ 31.3 µg/mL)	2.4 (≈ 0.816 µg/mL)	23 (≈ 7.82 µg/mL)	–	2.4 (≈ 0.816 µg/mL)	23 (≈ 7.82 µg/mL)	C/C(=N\Nc1nc(-c2ccc(Br)cc2)cs1)C(=O)O
–	–	> 125	> 125	> 125	> 125	> 125	> 125	> 125	> 125	CCOC(=O)/C(C)=N/Nc1nc(-c2ccc(Cl)cc2)cs1
–	–	13.7 (≈ 3.92 µg/mL)	–	> 125	22 (≈ 6.3 µg/mL)	109 (≈ 31.3 µg/mL)	–	175 (≈ 50 µg/mL)	109 (≈ 31.3 µg/mL)	C/C(=N\Nc1nc(-c2ccc(C#N)cc2)cs1)C(=O)O
–	–	13.4 (≈ 3.9 µg/mL)	–	56.6 (≈ 16.5 µg/mL)	–	56.6 (≈ 16.5 µg/mL)	–	–	26.8 (≈ 7.81 µg/mL)	COc1ccc(-c2csc(N/N=C(\C)C(=O)O)n2)cc1
–	–	7 (≈ 1.96 µg/mL)	–	112 (≈ 31.3 µg/mL)	11.1 (≈ 3.1 µg/mL)	28 (≈ 7.82 µg/mL)	–	5.7 (≈ 1.59 µg/mL)	28 (≈ 7.82 µg/mL)	C/C(=N\Nc1nc(-c2ccc(F)cc2)cs1)C(=O)O
–	–	6.6 (≈ 1.95 µg/mL)	–	106 (≈ 31.3 µg/mL)	5.4 (≈ 1.6 µg/mL)	26.4 (≈ 7.81 µg/mL)	–	5.4 (≈ 1.6 µg/mL)	26.4 (≈ 7.81 µg/mL)	C/C(=N\Nc1nc(-c2ccc(Cl)cc2)cs1)C(=O)O
